Measurements taken from PMC12152147, “DDB1 engagement defines the selectivity of S656 analogs for cyclin K degradation over CDK inhibition” (EMBO Reports, 2025).
Values joined by “and” are separate entries in the source; they are usually repeats but may differ in a detail not shown here. Identical values can stand only once. Like-named read-outs stand apart in the source and are kept apart here. Values belong to the compound of their own block, whether it stands above or below them.

How the values were obtained:
[1] = tested on: cyclin K, CDK12, RNA polymerase II phospho-ser2, MYC, MCL-1 protein levels; test: Immunoblot analysis of protein levels; format: cell-based, H. sapiens; conditions: for RNA polymerase II phospho-ser2 level (immunoblot): OCI-AML5, 5 μM for 5 h
Description: Total proteins were extracted using RIPA buffer (20 mM Tris-HCl pH 7.4, 150 mM NaCl, 5 mM MgCl2, 5 mM EGTA, 60 mM β-glycerophosphate, 0.1% NP40, 0.1% Triton X-114, 1 mM DTT) supplemented with protease inhibitors (cOmplete, EDTA-free protease inhibitor tablets), and quantified by the bicinchoninic acid (BCA) method using a BSA standard curve. Proteins were resolved by SDS-PAGE, transferred onto PVDF membrane, blocked with 5% milk and probed with primary (overnight, 4 °C) and secondary (1 h, room temperature) antibodies.

CD34+ cord blood cells = test: Chemical screen / dose response on CD34+ cord blood cells; format: cell-based, Human
Description: Fresh umbilical cord blood units were collected from consenting donors according to ethically approved procedures at St Justine, Maisonneuve-Rosemont (Montréal, QC, Canada) and Charles Le Moyne (Longueuil, QC, Canada, approval reference number AA-HCLM-16-014) Hospitals. Human CD34^+ cells were isolated using the EasySep Human Cord Blood CD34^+ Selection Kit through positive magnetic selection. Chemical screen was performed as described in primary AML with the following modifications: 2000 cord blood cells were seeded, CB media contains StemSpan-ACF supplemented with 100 ng/mL SCF, 100 ng/mL FLT3L, 50 ng/mL TPO, 10 μg/mL LDL, 1× glutamax, gentamicin (50 μg/mL), ciprofloxacin (10 μg/mL), SR1 (500 nmol/L) and UM729 (500 nmol/L).
(§1) Dose-response assays in primary AML specimens were performed as in chemical screen (see above) with the exception that compounds were tested in serial dilution (8 dilutions, 1:4, 10 μM down to 0.5 nM). Dose-response assays in OCI-AML5 cell line were conducted similarly with the following modifications: 300 cells per well were seeded in 50 μL of cell line media and cell viability was evaluated after 4 days in culture.

CDK12-DDB1 interaction = target: T1, CDK12-DDB1 interaction (Homo sapiens, UniProt Q16531+Q9NYV4); test: NanoLuc Binary Technology CDK12-DDB1 interaction in HEK293 cells; format: cell-based, H. sapiens; conditions: HEK293, monitored over 1 h
T1 construct: The kinase domain of CDK12 was fused to the Large BiT (LgBiT); expressed in transfected cells; host or cells: HEK293
Description: Using the NanoBiT PPI MCS starter system vectors, we generated fusion proteins of CDK12 and DDB1 to monitor their interaction in living cells through a structural complementation reporter system for the NanoLuc. The kinase domain of CDK12 was fused to the Large BiT (LgBiT) while DDB1 was fused to the Small Bit (SmBiT), both in N-terminal. The primers used to clone CDK12 and DDB1 in NanoBit vectors by Gibson assembly are as follows: N-LgBiT-CDK12KD-F: […]; N-LgBiT-CDK12KD-STOP-R: […]; N-SmBiT-DDB1-F: […]; N-SmBiT-DDB1-GA-R: […].
Both CDK12-LgBiT and DDB1-SmBiT generated plasmids were then transfected in HEK293 cells using JetPrime transfection reagent according to the manufacturer’s instructions and plated 24 h later in white 384-well plate (20,000 cells /well). After 4 h, 5× D-blue substrate was added to each well, incubated for 5 min at obscurity, prior to addition of compounds of interest at increasing concentrations. Luminescence was monitored for 1 h using the Neo Synergy BioTek plate reader.

[2] = tested on: OCI-AML5 Cas9 cells (sgDDB1, sgAAVS1); test: Dose response in inducible OCI-AML5 Cas9 cells expressing sgRNAs targeting DDB1 or AAVS1; format: cell-based, H. sapiens; conditions: 4 days, read-out: S656 IC50
Description: as §1
Clonal OCI-AML5 cells expressing an inducible Cas9 (Addgene plasmid #50661 (Wang et al, [2014])) were generated and then infected with lentiviruses for constitutive expression of sgRNAs targeting AAVS1 control region (Addgene plasmid #50662 (Wang et al, [2014])) or DDB1 #1 ([…]); #2 ([…]). Cas9 expression is induced by doxycycline (2 μg/mL) and experiments performed subsequently.

primary AML specimens = test: Discovery screen: 6-day single-dose (1 μM) viability, CellTiterGlo; format: cell-based, human; conditions: 6 days
Description: As recently described, our group conducted a high-throughput screening (HTS) assay assessing the response of 56 primary AML specimens to a library of 10,000 compounds (Moison et al, [2024]). This diverse small molecule library encompassed compounds with a wide range of structural diversity (Bristol-Myers Squibb), including clinical-grade compounds. Primary AML specimens representing the biological diversity of the disease, along with normal hematopoietic cells (CD34^+ cord blood cells), were exposed to a 6-day single-dose compound treatment (1 μM) and viability was assessed using the CellTiterGlow luminescent assay (Appendix Fig. S1A–C). A profile of inhibition—or fingerprint—was generated for each small molecule across the 56 primary AML specimens tested. […] Among these candidates, 12 were validated in cell lines and primary specimens and selected based on their chemotypes. […] Of note, highly sensitive AML specimens spanned various AML subgroups, underscoring the broad activity of S656 across genetically diverse AMLs (Fig. 1D).
Freshly thawed primary AML specimens were used for chemical screens. […] Cell viability was evaluated after 6 days in culture using the CellTiterGlo assay according to the manufacturer’s instruction. Percentage of inhibition for dose response curves was calculated as 100 – (100 × (mean luminescence [compound]/mean luminescence [DMSO])). […]

[3] = OCI-AML5, increasing concentrations, 6 h

T1 sequence (Q9NYV4 727-1020 limits assumed): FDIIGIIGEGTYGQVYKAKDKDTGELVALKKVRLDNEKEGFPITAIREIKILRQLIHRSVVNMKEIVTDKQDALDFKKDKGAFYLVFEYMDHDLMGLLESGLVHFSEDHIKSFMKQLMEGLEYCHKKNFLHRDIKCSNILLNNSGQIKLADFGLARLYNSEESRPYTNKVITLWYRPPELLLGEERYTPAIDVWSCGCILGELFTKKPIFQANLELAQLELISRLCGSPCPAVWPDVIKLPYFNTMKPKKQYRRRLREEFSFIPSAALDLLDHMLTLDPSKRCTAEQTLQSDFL
T1 sequence (Q16531 whole entry, the tested form may be a part): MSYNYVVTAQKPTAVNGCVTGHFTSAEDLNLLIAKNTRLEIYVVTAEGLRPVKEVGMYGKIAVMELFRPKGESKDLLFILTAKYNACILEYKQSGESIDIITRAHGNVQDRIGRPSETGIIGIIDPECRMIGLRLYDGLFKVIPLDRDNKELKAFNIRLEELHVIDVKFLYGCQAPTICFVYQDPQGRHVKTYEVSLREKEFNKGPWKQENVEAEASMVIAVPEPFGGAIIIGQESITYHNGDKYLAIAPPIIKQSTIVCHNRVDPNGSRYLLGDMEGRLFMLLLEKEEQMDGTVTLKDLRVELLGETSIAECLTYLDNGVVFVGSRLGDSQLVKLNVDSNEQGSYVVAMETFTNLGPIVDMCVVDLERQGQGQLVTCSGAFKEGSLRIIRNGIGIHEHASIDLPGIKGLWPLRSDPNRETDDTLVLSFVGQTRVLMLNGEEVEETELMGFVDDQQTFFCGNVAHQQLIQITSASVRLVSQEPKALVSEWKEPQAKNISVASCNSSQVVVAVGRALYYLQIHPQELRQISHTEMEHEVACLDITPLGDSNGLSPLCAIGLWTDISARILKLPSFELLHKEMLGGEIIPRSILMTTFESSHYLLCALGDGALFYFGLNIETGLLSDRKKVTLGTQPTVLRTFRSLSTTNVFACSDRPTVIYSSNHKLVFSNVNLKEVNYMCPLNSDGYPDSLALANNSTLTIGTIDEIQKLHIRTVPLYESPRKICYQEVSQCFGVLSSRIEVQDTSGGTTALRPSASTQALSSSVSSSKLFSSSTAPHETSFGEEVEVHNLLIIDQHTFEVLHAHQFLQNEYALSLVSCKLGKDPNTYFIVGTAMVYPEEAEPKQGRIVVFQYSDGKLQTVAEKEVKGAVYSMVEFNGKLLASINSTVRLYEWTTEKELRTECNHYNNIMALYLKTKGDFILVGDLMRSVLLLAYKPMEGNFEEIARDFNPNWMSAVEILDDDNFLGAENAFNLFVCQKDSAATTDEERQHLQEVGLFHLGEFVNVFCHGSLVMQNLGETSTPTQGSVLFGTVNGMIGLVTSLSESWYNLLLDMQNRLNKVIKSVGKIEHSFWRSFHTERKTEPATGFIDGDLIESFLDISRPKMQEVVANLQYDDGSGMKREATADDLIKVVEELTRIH
T1 sequence (O75909 whole entry partner, the tested form may be a part): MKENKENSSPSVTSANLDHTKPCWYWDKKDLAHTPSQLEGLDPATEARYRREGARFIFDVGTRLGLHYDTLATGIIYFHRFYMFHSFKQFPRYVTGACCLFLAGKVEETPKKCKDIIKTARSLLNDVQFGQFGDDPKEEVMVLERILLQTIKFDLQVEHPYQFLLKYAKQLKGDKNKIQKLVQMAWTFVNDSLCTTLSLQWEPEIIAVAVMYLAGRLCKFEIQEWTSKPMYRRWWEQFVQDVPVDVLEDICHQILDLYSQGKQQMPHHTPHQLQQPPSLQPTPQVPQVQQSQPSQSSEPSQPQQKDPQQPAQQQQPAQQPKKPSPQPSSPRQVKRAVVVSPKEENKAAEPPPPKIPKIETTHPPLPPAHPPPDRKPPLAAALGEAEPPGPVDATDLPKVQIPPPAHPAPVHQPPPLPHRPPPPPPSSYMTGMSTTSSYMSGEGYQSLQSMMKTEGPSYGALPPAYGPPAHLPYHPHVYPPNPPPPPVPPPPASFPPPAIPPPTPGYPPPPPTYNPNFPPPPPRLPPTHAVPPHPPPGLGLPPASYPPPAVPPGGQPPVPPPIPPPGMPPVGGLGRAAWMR

cyclin K protein level (immunoblot) [1, 3]: dose-dependent cyclin K depletion
Structure (SMILES): Cc1cccc(Nc2nc(CC(=O)Nc3ncc(C)s3)cs2)n1 [HQ461]
RNA polymerase II phospho-ser2 level (immunoblot) [1]: reduced levels of RNA polymerase II phospho-ser2

cyclin K protein level (immunoblot) ([1]; 3 primary AML specimens, 5 μM, 5 hours): strong depletion of cyclin K
Mcl-1 protein and c-MYC level (immunoblot) ([1]; OCI-AML5, 5 μM for 4 h): substantial depletion
cyclin K protein level (immunoblot) [1, 3]: dose-dependent cyclin K depletion
IC50 (CD34+ cord blood cells; Homo sapiens, dose-response, read-out: IC50 on purified CD34+ cells from cord blood): 1.31 µM
IC50 ([2]; Homo sapiens, OCI-AML-5, 96 h, sgAAVS + DOX): 0.923 µM
IC50 ([2]; Homo sapiens, OCI-AML-5, 96 h, sgAAVS - DOX): 0.896 µM
IC50 ([2]; Homo sapiens, OCI-AML-5, 96 h, sgDDB1 #1 + DOX): 2.17 µM
IC50 ([2]; Homo sapiens, OCI-AML-5, 96 h, sgDDB1 #1 - DOX): 1.19 µM
IC50 ([2]; Homo sapiens, OCI-AML-5, 96 h, sgDDB1 #2 + DOX): 2.44 µM
IC50 ([2]; Homo sapiens, OCI-AML-5, 96 h, sgDDB1 #2 - DOX): 0.936 µM
IC50 ([2]; sgAAVS + DOX): 1.13 µM and 0.96 µM
IC50 ([2]; sgAAVS - DOX): 0.945 µM and 0.735 µM
IC50 ([2]; sgDDB1 #1 + DOX): 2.09 µM and 1.91 µM
IC50 ([2]; sgDDB1 #1 - DOX): 1.02 µM and 0.964 µM
IC50 ([2]; sgDDB1 #2 + DOX): 2.38 µM and 1.63 µM
IC50 ([2]; sgDDB1 #2 - DOX): 1.07 µM and 0.975 µM
Structure (SMILES): CN(C)c1ccc(CC(=O)Nc2ncc(SCc3cccnc3)s2)cc1 [S656]
RNA polymerase II phospho-ser2 level (immunoblot) [1]: reduced levels of RNA polymerase II phospho-ser2
activity against CD34+ cord blood cells (CD34+ cord blood cells; discovery screen, 1 μM, 6 days): low activity
CDK12-DDB1 interaction in live cells (NanoLuc luminescence) (CDK12-DDB1 interaction): efficiently induced an interaction between CDK12 and DDB1
inhibition at 1 µM (primary AML specimens; Homo sapiens, 144 h, 1 μM, in 10 out of 56 primary AML specimens, read-out: growth inhibition): > 70%
% inhibition S656 at 1uM (primary AML specimens; discovery screen, one primary AML specimen per row (Patient ID in c0)): 0.00%

CDK12-DDB1 interaction in live cells (NanoLuc luminescence) (CDK12-DDB1 interaction): not detectable
Structure (SMILES): CN(C)C/C=C/C(=O)Nc1ccc(C(=O)N2CCC[C@@H](Nc3ncc(Cl)c(-c4c[nH]c5ccccc45)n3)C2)cc1 [THZ531]
